Assay results reported in PMC6072100, “Exploring the links between peptoid antibacterial activity and toxicity” (MedChemComm, 2017).
Like-named read-outs stand apart in the source and are kept apart here. Square brackets hold non-standard residues; d marks the D form. Peptide text beside a SMILES is read from it. N(4-F-Bzl)Gly = O=C(O)CNCc1ccc(F)cc1; Gly(N-(CH2)6NH2) = NCCCCCCNCC(=O)O; Nspe = C[C@H](NCC(=O)O)c1ccccc1; NhArg = N=C(N)NCCCCNCC(=O)O; Nlys = NCCCCNCC(=O)O

Tests used:
[1] = system: HaCaT cells; experiment: Skin cell toxicity assay with HaCaT (alamarBlue); assay type: cell-based, human
Procedure, shortened: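 HaCaT cells seeded at 2x10^4 per well 24 hours before 1-hour exposure to a 2–100 µM triplicate dilution series in DMEM high glucose with 10% FBS at 37 °C, 5% CO2. Viability assessed with alamarBlue; ED50 defined as dose killing 50% of cells, derived from dose-response data.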

[2] = system: HepG2 cells; experiment: Cytotoxicity assay with HepG2 (alamarBlue); assay type: cell-based, human
Procedure, shortened: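 HepG2 cells (2 × 10^4/well, seeded 1 day earlier) were exposed to compounds (2–100 μM dilution series, triplicate) for 1 h in reduced volume, then diluted with medium and incubated 24 h at 37 °C. Viability was read by alamarBlue after 2 h (Ex 560/Em 600 nm), and ED50 (dose killing 50% of cells) came from dose-response curves.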

SMILES | ED50 HaCaT [1] [µM] | ED50 HepG2 [2] [µM] | ED50 HaCaT ([1]; human, HaCaT cells (keratinocytes), 24 h) [µM] | ED50 HepG2 ([2]; human, HepG2 cells, 24 h) [µM]
C[C@@H](c1ccccc1)N(CC(N)=O)C(=O)CN(C(=O)CN(CCCCNC(=N)N)C(=O)CN(C(=O)CN(C(=O)CN(CCCCNC(=N)N)C(=O)CN(C(=O)CN(C(=O)CN(CCCCNC(=N)N)C(=O)CN(C(=O)CN(C(=O)CNCCCCNC(=N)N)[C@@H](C)c1ccccc1)[C@@H](C)c1ccccc1)[C@@H](C)c1ccccc1)[C@@H](C)c1ccccc1)[C@@H](C)c1ccccc1)[C@@H](C)c1ccccc1)[C@@H](C)c1ccccc1 [Peptoid 34, (NhArgNspeNspe)4] (H-[NhArg][Nspe][Nspe][NhArg][Nspe][Nspe][NhArg][Nspe][Nspe][NhArg][Nspe][Nspe]-NH2) | 20 | 12 | – | –
NCCCCNCC(=O)N(CC(=O)N(CC(=O)N(CCCCN)CC(=O)N(CC(=O)N(CC(=O)N(CCCCN)CC(=O)N(CC(=O)N(CC(=O)N(CCCCN)CC(=O)N(CC(=O)N(CC(N)=O)Cc1ccc(F)cc1)Cc1ccc(F)cc1)Cc1ccc(F)cc1)Cc1ccc(F)cc1)Cc1ccc(F)cc1)Cc1ccc(F)cc1)Cc1ccc(F)cc1)Cc1ccc(F)cc1 [Peptoid 22, (NLysNpfbNpfb)4] (H-[Nlys][N(4-F-Bzl)Gly][N(4-F-Bzl)Gly][Nlys][N(4-F-Bzl)Gly][N(4-F-Bzl)Gly][Nlys][N(4-F-Bzl)Gly][N(4-F-Bzl)Gly][Nlys][N(4-F-Bzl)Gly][N(4-F-Bzl)Gly]-NH2) | 46 | 30 | – | –
C[C@@H](c1ccccc1)N(CC(N)=O)C(=O)CN(C(=O)CN(CCCCCCN)C(=O)CN(C(=O)CN(C(=O)CN(CCCCCCN)C(=O)CN(C(=O)CN(C(=O)CNCCCCCCN)[C@@H](C)c1ccccc1)[C@@H](C)c1ccccc1)[C@@H](C)c1ccccc1)[C@@H](C)c1ccccc1)[C@@H](C)c1ccccc1 [Peptoid 11, (NahNspeNspe)3] (H-[Gly(N-(CH2)6NH2)][Nspe][Nspe][Gly(N-(CH2)6NH2)][Nspe][Nspe][Gly(N-(CH2)6NH2)][Nspe][Nspe]-NH2) | – | – | >100 | >100
